Test results as given in ChEMBL document CHEMBL3232928, “Fragment-to-hit-to-lead discovery of a novel pyridylurea scaffold of ATP competitive dual targeting type II topoisomerase inhibiting antibacterial agents” (J Med Chem, 2013).
Converted amounts (≈) assume the structure as drawn. The source made the active and inactive calls. No cut-off for these calls is given here.

Legend:
[1] = Antibacterial activity against fluoroquinolone-resistant Streptococcus pneumoniae D39 NCTC 7466 expressing GyrB K143A/ParE T172A double mutant assessed as growth inhibition after 18 to 24 hrs by CLSI broth microdilution method; format: functional
[2] = Antibacterial activity against fluoroquinolone-resistant Streptococcus pneumoniae D39 NCTC 7466 expressing GyrB/ParE T172A mutant assessed as growth inhibition after 18 to 24 hrs by CLSI broth microdilution method; format: functional
[3] = Inhibition of ATPase activity in Escherichia coli ParC/ParE by ammonium molybdate/malachite green-based absorbance assay
[4] = Dissociation constant, pKa of the compound; format: physicochemical
[5] = Antibacterial activity against fluoroquinolone-resistant Streptococcus pneumoniae D39 NCTC 7466 expressing GyrA S81F/ParC S79Y double mutant assessed as growth inhibition after 18 to 24 hrs by CLSI broth microdilution method; format: functional
[6] = Antibacterial activity against fluoroquinolone-resistant Streptococcus pneumoniae D39 NCTC 7466 expressing ParE/GyrB K143I mutant assessed as growth inhibition after 18 to 24 hrs by CLSI broth microdilution method; format: functional
[7] = Unbound fraction in human at 10 uM after 16 hrs by LC-MS/MS analysis; format: ADME; conditions: plasma
[8] = Clearance in rat plasma at 10 mg/kg, iv administered 15 mins of infusion measured for 0 to 24 hrs by LC-MS/MS analysis; format: ADME, organism-based; parameters: dose 10 mg/kg, route intravenous
[9] = Clearance in mouse; format: ADME, organism-based; conditions: in vivo
[10] = tested on: Staphylococcus aureus; experiment: Resistance factor, ratio of MIC for Staphylococcus aureus drug resistance mutants at 0.05 ug/ml after 7 days to MIC for wild type methicillin-sensitive Staphylococcus aureus at 0.1 ug/ml after 7 days; format: functional
[11] = tested on: Staphylococcus aureus; experiment: Antibacterial activity against ip dosed Staphylococcus aureus infected in neutropenic mouse thigh model assessed as decrease in bacterial viable counts administered up to 12 hrs; format: functional; conditions: Thigh muscle
[12] = Inhibition of ATPase activity in Escherichia coli GyrA/GyrB by ammonium molybdate/malachite green-based absorbance assay
[13] = tested on: Staphylococcus aureus; experiment: Antibacterial activity against Staphylococcus aureus infected in neutropenic mouse thigh model assessed as decrease in bacterial viable counts at 300 mg/kg, ip administered up to 12 hrs; format: functional, organism-based; parameters: dose 300 mg/kg
[14] = Antibacterial activity against fluoroquinolone-resistant Streptococcus pneumoniae D39 NCTC 7466 expressing GyrA S81Y/ParC S79F double mutant assessed as growth inhibition after 18 to 24 hrs by CLSI broth microdilution method; format: functional
[15] = tested on: Staphylococcus aureus; experiment: Resistance factor, ratio of MIC for Staphylococcus aureus drug resistance mutants at 0.05 ug/ml after 7 days to MIC for wild type methicillin-sensitive Staphylococcus aureus at 0.2 ug/ml after 7 days; format: functional
[16] = Solubility of the compound; format: physicochemical
[17] = tested on: Staphylococcus aureus; experiment: Antibacterial activity against methicillin-sensitive wild type Staphylococcus aureus assessed as growth inhibition after 18 to 24 hrs by CLSI broth microdilution method; format: functional
[18] = Antibacterial activity against fluoroquinolone-resistant Streptococcus pneumoniae D39 NCTC 7466 expressing ParE/GyrB T172A mutant assessed as growth inhibition after 18 to 24 hrs by CLSI broth microdilution method; format: functional
[19] = tested on: Streptococcus pneumoniae; experiment: microbe, parasite or virus in culture
Description: Antibacterial activity against wild type Streptococcus pneumoniae assessed as growth inhibition after 18 to 24 hrs by CLSI broth microdilution method

[20] = Antibacterial activity against wild type Haemophilus influenzae Rd KW20 ATCC 51907 assessed as growth inhibition after 18 to 24 hrs by CLSI broth microdilution method; format: functional
[21] = Antibacterial activity against fluoroquinolone-resistant Streptococcus pneumoniae D39 NCTC 7466 expressing GyrB T172A/ParE T172A double mutant assessed as growth inhibition after 18 to 24 hrs by CLSI broth microdilution method; format: functional
[22] = tested on: Moraxella catarrhalis; experiment: Antibacterial activity against wild type Moraxella catarrhalis ATCC 43617 assessed as growth inhibition after 18 to 24 hrs by CLSI broth microdilution method; format: functional
[23] = Octanol-phosphate buffer partition coefficient, log D of the compound at pH 7.4 after 1 hr by shake flask method; format: physicochemical
[24] = tested on: Staphylococcus aureus; experiment: Antibacterial activity against ip dosed Staphylococcus aureus infected in neutropenic mouse thigh model assessed as decrease in bacterial viable counts administered up to 12 hrs relative to vehicle-treated control; format: functional, organism-based; conditions: Thigh muscle
[25] = Volume of distribution at steady state in rat plasma at 10 mg/kg, iv administered 15 mins of infusion measured for 0 to 24 hrs by LC-MS/MS analysis; format: ADME, organism-based; parameters: dose 10 mg/kg, route intravenous; conditions: read-out: Vdss
[26] = tested on: Escherichia coli; experiment: Antibacterial activity against tolC efflux pump deficient Escherichia coli W3110 assessed as growth inhibition after 18 to 24 hrs by CLSI broth microdilution method; format: functional
[27] = Antibacterial activity against fluoroquinolone-resistant Streptococcus pneumoniae D39 NCTC 7466 expressing GyrA S81F/ParC S79F double mutant assessed as growth inhibition after 18 to 24 hrs by CLSI broth microdilution method; format: functional
[28] = Antibacterial activity against Streptococcus pneumoniae D39 NCTC 7466 assessed as growth inhibition after 18 to 24 hrs by CLSI broth microdilution method; format: functional
[29] = Inhibition of ATPase activity in Escherichia coli ParE by ammonium molybdate/malachite green-based absorbance assay
[30] = Volume of distribution at steady state in mouse; format: ADME, organism-based; conditions: in vivo, read-out: Vdss
[31] = tested on: Escherichia coli; experiment: Antibacterial activity against wild type Escherichia coli W3110 assessed as growth inhibition after 18 to 24 hrs by CLSI broth microdilution method; format: functional
[32] = tested on: Staphylococcus aureus; experiment: Antibacterial activity against methicillin-resistant and […] Staphylococcus aureus assessed as growth inhibition after 18 to 24 hrs by CLSI broth microdilution method; format: functional
[33] = tested on: Staphylococcus aureus; experiment: Resistance factor, ratio of MIC for Staphylococcus aureus drug resistance mutants at 0.05 ug/ml after 7 days to MIC for wild type methicillin-sensitive Staphylococcus aureus at 0.05 ug/ml after 7 days; format: functional
[34] = molecular target: DNA gyrase subunit B (Staphylococcus aureus, UniProt P0A0K8); experiment: Inhibition of ATPase activity in Staphylococcus aureus GyrB tetramer in presence of Escherichia coli GyrA by ammonium molybdate/malachite green-based absorbance assay
Sequence of DNA gyrase subunit B (P0A0K8 whole entry): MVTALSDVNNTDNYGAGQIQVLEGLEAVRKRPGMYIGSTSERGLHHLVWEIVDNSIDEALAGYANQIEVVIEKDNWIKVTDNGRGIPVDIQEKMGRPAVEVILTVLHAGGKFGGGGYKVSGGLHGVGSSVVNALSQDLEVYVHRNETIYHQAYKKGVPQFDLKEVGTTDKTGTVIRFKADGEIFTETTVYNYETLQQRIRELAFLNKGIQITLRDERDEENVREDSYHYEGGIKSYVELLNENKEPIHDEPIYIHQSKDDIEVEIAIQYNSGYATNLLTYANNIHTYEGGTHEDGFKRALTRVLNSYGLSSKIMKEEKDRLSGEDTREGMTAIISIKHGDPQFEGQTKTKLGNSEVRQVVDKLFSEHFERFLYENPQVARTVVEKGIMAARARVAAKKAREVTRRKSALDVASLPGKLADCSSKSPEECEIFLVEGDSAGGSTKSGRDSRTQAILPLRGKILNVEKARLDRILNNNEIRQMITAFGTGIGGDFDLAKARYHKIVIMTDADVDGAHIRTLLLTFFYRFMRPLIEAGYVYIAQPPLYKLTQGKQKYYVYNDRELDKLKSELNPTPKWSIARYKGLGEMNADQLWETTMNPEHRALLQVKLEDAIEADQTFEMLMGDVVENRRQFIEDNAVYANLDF

[35] = tested on: Staphylococcus aureus; experiment: Antibacterial activity against Staphylococcus aureus infected in neutropenic mouse thigh model assessed as decrease in bacterial viable counts at 300 mg/kg, ip administered up to 12 hrs relative to vehicle-treated control; format: functional; conditions: route intraperitoneal

## CCNC(=O)Nc1cc(-c2nc(C(F)(F)F)cs2)c(-c2cncc(-c3n[nH]c(=O)o3)c2)cn1
[1]
  MIC: 0.04 µg/mL (≈ 0.0838 µM)
[2]
  MIC: 0.01 µg/mL (≈ 0.0209 µM)
[3]
  IC50: 230 nM
[4]
  pKa: 6.6
[5]
  MIC: 0.0025 µg/mL (≈ 0.00524 µM)
[6]
  MIC: 0.01 µg/mL (≈ 0.0209 µM)
[7]
  fraction unbound at 16 h, 10 µM: 0.044
[8]
  clearance: 36 mL/min/kg
[9]
  clearance: 74 mL/min/kg
[10]
  Ratio: 16
[11]
  ED50: 200 mg/kg
[12]
  IC50: < 10 nM
[13]
  Activity: Active
[14]
  MIC: 0.0025 µg/mL (≈ 0.00524 µM)
[15]
  Ratio: 16
[16]
  solubility: 19 µM (≈ 9.07 µg/mL)
[17]
  MIC: 0.04 µg/mL (≈ 0.0838 µM)
[18]
  MIC: 0.01 µg/mL (≈ 0.0209 µM)
[19]
  MIC: 0.0025 µg/mL (≈ 0.00524 µM)
[20]
  MIC: 0.69 µg/mL (≈ 1.45 µM)
[21]
  MIC: 0.02 µg/mL (≈ 0.0419 µM)
[22]
  MIC: 0.04 µg/mL (≈ 0.0838 µM)
[23]
  logD at 1 h: 2
[24]
  Activity: Dose-dependent effect
[25]
  Vd: 0.66 L/kg
[26]
  MIC: 0.15 µg/mL (≈ 0.314 µM)
[27]
  MIC: 0.0025 µg/mL (≈ 0.00524 µM)
[28]
  MIC: 0.05 µg/mL (≈ 0.105 µM)
[29]
  IC50: < 10 nM
[30]
  Vd: 2.6 L/kg
[31]
  MIC: > 64 µg/mL
[32]
  MIC: 0.06 µg/mL (≈ 0.126 µM)
[33]
  Ratio: 16
[34]
  IC50: < 10 nM
[35]
  fold change (FC): 3000
